Experimental data taken from patent publication US20260356846A1, “STATIN DERIVATIVES AND METHODS OF USING THE SAME” (The General Hospital Corporation, priority 2023, published 2026).
pEC50: −log10 of the molar value. Where two headings read alike, the source gives them in different places.

Columns and labels:
[1] = tested on: STMN2 (WT STMN2-NLuc SH-SY5Y cells); experiment: STMN2 nanoluciferase assay in WT SH-SY5Y cells (Table A: WT TDP-32; Table B: WT HD Luciferase); format: cell-based, human; details: WT cell line; for maximal fold induction / HD Luciferase (WT, Emax): Emax
Procedure: (§1) Neuroblastoma cells (ATCC) were cultured in DMEM/F12 (Gibco) supplemented with 10% fetal-bovine serum (Omega) and 1% penicillin-streptomycin (Gibco) at 37 °C with 5% CO2. For knockdown experiments, cells were transfected with SMARTpool ON-TARGETplus siRNA or control siRNA pool (D001810-10) (GE Dharmacon) at a final concentration of 50 nM, for 96 h in two doses (0, 24 h), after complexing with Lipofectamin RNAiMAX (Invitrogen) in Opti-MEM (Gibco) for 10 min.
(§2) WT and TDP-mut (N352S) SH-SY5Y cells were edited using CRISPR-Cas9 to express Nanoluciferase at the C-terminus of both endogenous STMN2 alleles. A single guided RNA targeting STMN2 C-terminus was designed (Benchling webtool) and cloned into pSpCas9-2A-green fluorescent protein (GFP) plasmid (px458-Addgene) using the BbsI restriction site. The sequence for guided RNA targeting STMN2 was: […]. For the repair template, overlapping fragments of 800 bp STMN2 homology arms flanking Nanoluciferase (NLuc, Promega) were generated and ligated into pUC57 backbone. A 42 bp GS-linker was also included 5′ to NLuc to prevent steric hindrance of the reporter to the final STMN2 exon. Fragments were ligated using Gibson Assembly and nucleofected simultaneously with pSpCas9-2A-GFP-gRNA plasmid using the Amaxa Nucleofector (assay A-023). Forty-eight hours following electroporation, cells were collected, and GFP-positive cells sorted and single-cell seeded into 96-well plates using the SH800S Sony cell sorter. Individual clones were expanded and DNA was extracted for PCR amplification of the STMN2 Ex5 genomic locus using primers within NLuc and outside the STMN2 5′ homology arm to confirm presence of the insert. The entire STMN2 coding region and all exon-intron junctions (>500-bp length of each intronic region) were then sequenced to verify the absence of any additional DNA alteration. qPCR analysis was performed with a wild-type isogenic SH-SY5Y cell line that had undergone the mutagenesis attempt but not acquired the insertion mutation during the original screening process.
(§3) TDP-mut STMN2-NLuc SH-SY5Y cells were used in small-molecule screening at ICCB-Longwood. 3000 cells/well were plated in white 384-well plates using a 50 ul sample volume. 24 hours after plating, compounds were added using 100 nl pin transfer. 24 hours later, 25 ul NLuc assay was added to each well according to manufacturer instructions (Promega, Cat #). Plates were shaken for 1 min prior to luminescence readings using EnVision2 machine. DMSO-only and WT STMN2-NLuc cells were included as negative and positive controls respectively on each plate, producing an average Z′score of ~0.7 across the screen. Each library plate was conducted in duplicate, and Z-scores calculated for each compound. For subsequent validation experiments, cell numbers in each well were quantified by hoescht staining at 1 μg/ml for 15 mins at 37C in black, clear bottom plates, prior to imaging at 4× using automated microscopy (ImageXpressMicro). Nuclei were then counted using a custom algorithm, and luciferase assay run as above. Luminescence results were then normalised against cell counts as RLU/cell.
(§4) Each compound was tested in triplicate in log doses ranging 0.01 μM−10 μM. The values are represented in luminescence normalized to the number of cells in the well, wherein darker grey correlates to higher RLU per cell and higher STMN2 protein expression.

[2] = tested on: STMN2 (TDP-mut (N352S) STMN2-NLuc SH-SY5Y cells); experiment: STMN2 nanoluciferase assay in TDP-43 mutant SH-SY5Y cells (Table A: mut TDP-43; Table B: mut HD Luciferase); format: cell-based, human; details: mutant TDP-43 cell line
Procedure: as §1, §2, §3, §4

[3] = Homo sapiens, SH-SY5Y, Table A, read-out: EC50, WT TDP-32
[4] = Homo sapiens, SH-SY5Y, Table B, read-out: EC50, WT HD Luciferase
[5] = Homo sapiens, SH-SY5Y, Table A, read-out: EC50, mut TDP-43
[6] = Homo sapiens, SH-SY5Y, Table B, read-out: EC50, mut HD Luciferase
[7] = Table B, read-out: EC50, WT HD Luciferase
[8] = Table B, read-out: EC50, mut HD Luciferase

| SMILES | pEC50 [1, 3] | pEC50 [1, 4] | pEC50 [2, 5] | pEC50 [2, 6] | HD Luciferase (mut, Emax) ([2]; Table B) | maximal fold induction ([1]; Homo sapiens, SH-SY5Y, Table B) | HD Luciferase (WT, Emax) ([1]; Table B) | pEC50 [1, 7] | pEC50 [2, 8] |
| --- | --- | --- | --- | --- | --- | --- | --- | --- | --- |
| O=C(O)C[C@H](O)C[C@H](O)/C=C/c1c(-c2ccc(F)cc2Cl)cc(C2CC2)nc1C1CC1 [II-8, (3R,5S,E)-7-(4-(2-chloro-4-fluorophenyl)-2,6-dicyclopropylpyridin-3-yl)-3,5-dihydroxyhept-6-enoic acid] | 6.30 to 7.00 | 7.30 to 8.00 | 6.30 to 7.00 | 7.30 to 8.00 | – | – | – | – | – |
| Cc1csc2c(-c3ccc(F)cc3)c(CC[C@H](O)C[C@@H](O)CC(=O)O)c(C3CC3)nc12 [Example I-33, (3R,5S)-7-(5-cyclopropyl-7-(4-fluorophenyl)-3-methylthieno[3,2-b]pyridin-6-yl)-3,5-dihydroxyheptanoic acid] | – | 6.30 to 7.00 | – | 6.30 to 7.00 | ** (means≥1.25 and <1.5) | – | – | – | – |
| COCc1c(C2CCC2)nc(C2CC2)c(/C=C/[C@@H](O)C[C@@H](O)CC(=O)O)c1-c1ccc(F)cc1Cl [II-4, (3R,5S,E)-7-(4-(2-chloro-4-fluorophenyl)-6-cyclobutyl-2-cyclopropyl-5-(methoxymethyl)pyridin-3-yl)-3,5-dihydroxyhept-6-enoic acid] | ≥ 7.00 | ≥ 8.00 | ≥ 7.00 | ≥ 8.00 | – | – | – | – | – |
| COCc1c(C2CC2)nc(C2CC2)c(/C=C/[C@@H](O)C[C@@H](O)CC(=O)O)c1-c1cc(F)ccc1Cl [II-13, (3R,5S,E)-7-(4-(2-chloro-5-fluorophenyl)-2,6-dicyclopropyl-5-(methoxymethyl)pyridin-3-yl)-3,5-dihydroxyhept-6-enoic acid] | – | 7.30 to 8.00 | – | 7.30 to 8.00 | – | – | – | – | – |
| O=C(O)C[C@H](O)C[C@H](O)/C=C/c1c(C2CC2)nc2c(C3CC3)csc2c1-c1ccc(F)cc1 [Example I-25, (3R,5S,E)-7-(3,5-dicyclopropyl-7-(4-fluorophenyl)thieno[3,2-b]pyridin-6-yl)-3,5-dihydroxyhept-6-enoic acid] | – | 7.30 to 8.00 | – | 7.30 to 8.00 | – | 1.5 to 1.75 | – | – | – |
| COCc1c(C23CC(C2)C3)nc(C2CC2)c(/C=C/[C@@H](O)C[C@@H](O)CC(=O)O)c1-c1ccc(F)cc1Cl [II-1, (3R,5S,E)-7-(6-(bicyclo[1.1.1]pentan-1-yl)-4-(2-chloro-4-fluorophenyl)-2-cyclopropyl-5-(methoxymethyl)pyridin-3-yl)-3,5-dihydroxyhept-6-enoic acid] | 6.30 to 7.00 | 7.30 to 8.00 | 6.30 to 7.00 | 7.30 to 8.00 | **** (means≥1.5 and <1.75) | – | – | – | – |
| O=C(O)C[C@H](O)C[C@H](O)/C=C/c1c(C2CC2)nc2ccccc2c1-c1ccc(F)cc1 [Pitavastatin, pitavastatin, reference compound] | 6.00 to 6.30 | – | 6.00 to 6.30 | – | – | – | – | – | – |
| Cc1cc2c(-c3ccc(F)cc3)c(/C=C/[C@@H](O)C[C@@H](O)CC(=O)O)c(C3CC3)nc2s1 [Example I-5c, (3R,5S,E)-7-(6-cyclopropyl-4-(4-fluorophenyl)-2-methylthieno[2,3-b]pyridin-5-yl)-3,5-dihydroxyhept-6-enoic acid] | – | – | – | – | – | – | ** (means≥1.25 and <1.5) | 6.30 to 7.00 | 6.30 to 7.00 |
| Cc1cc(F)ccc1-c1cc(C2CC2)nc(C2CC2)c1/C=C/[C@@H](O)C[C@@H](O)CC(=O)O [II-12, (3R,5S,E)-7-(2,6-dicyclopropyl-4-(4-fluoro-2-methylphenyl)pyridin-3-yl)-3,5-dihydroxyhept-6-enoic acid] | – | ≥ 8.00 | – | ≥ 8.00 | – | – | – | – | – |
| COCc1c(C2CCC2)nc(C2CCC2)c(/C=C/[C@@H](O)C[C@@H](O)CC(=O)O)c1-c1ccc(F)cc1 [II-6, (3R,5S,E)-7-(2,6-dicyclobutyl-4-(4-fluorophenyl)-5-(methoxymethyl)pyridin-3-yl)-3,5-dihydroxyhept-6-enoic acid] | – | 7.30 to 8.00 | – | 7.30 to 8.00 | – | – | – | – | – |
| O=C(O)C[C@H](O)C[C@H](O)/C=C/c1c(C2CC2)nc2ccsc2c1-c1ccc(F)cc1 [Example I-4, (3R,5S,E)-7-(5-cyclopropyl-7-(4-fluorophenyl)thieno[3,2-b]pyridin-6-yl)-3,5-dihydroxyhept-6-enoic acid] | 6.30 to 7.00 | 7.30 to 8.00 | 6.30 to 7.00 | 7.30 to 8.00 | – | – | – | – | – |
| O=C(O)C[C@H](O)C[C@H](O)/C=C/c1c(-c2ccc(F)cc2)cc(C23CC(C2)C3)nc1C1CC1 [II-16, (3R,5S,E)-7-(6-(bicyclo[1.1.1]pentan-1-yl)-2-cyclopropyl-4-(4-fluorophenyl)pyridin-3-yl)-3,5-dihydroxyhept-6-enoic acid] | – | 7.00 to 7.30 | – | 6.30 to 7.00 | ** (means≥1.25 and <1.5) | – | – | – | – |
| Cc1cc2nc(C3CC3)c(/C=C/[C@@H](O)C[C@@H](O)CC(=O)O)c(-c3ccc(F)cc3)c2s1 [Example I-6, (3R,5S,E)-7-(5-cyclopropyl-7-(4-fluorophenyl)-2-methylthieno[3,2-b]pyridin-6-yl)-3,5-dihydroxyhept-6-enoic acid] | – | 7.30 to 8.00 | – | 7.30 to 8.00 | – | 1.25 to 1.5 | – | – | – |
| Cc1nc2cc(C3CC3)c(/C=C/[C@@H](O)C[C@@H](O)CC(=O)O)c(-c3ccc(F)cc3)c2s1 [Example I-8, (3R,5S,E)-7-(5-cyclopropyl-7-(4-fluorophenyl)-2-methylbenzo[d]thiazol-6-yl)-3,5-dihydroxyhept-6-enoic acid] | 6.30 to 7.00 | 7.30 to 8.00 | 6.30 to 7.00 | 7.30 to 8.00 | – | 1.25 to 1.5 | – | – | – |
| COCc1c(C(C)C)nc(C(C)C)c(/C=C/[C@@H](O)C[C@@H](O)CC(=O)O)c1-c1ccc(F)cc1 [Cerivastatin, cerivastatin, reference compound] | 6.30 to 7.00 | – | ≥ 7.00 | – | – | – | – | – | – |
| COCc1c(C2CCC2)nc(C2CC2)c(/C=C/[C@@H](O)C[C@@H](O)CC(=O)O)c1-c1ccc(F)cc1 [II-5, (3R,5S,E)-7-(6-cyclobutyl-2-cyclopropyl-4-(4-fluorophenyl)-5-(methoxymethyl)pyridin-3-yl)-3,5-dihydroxy hept-6-enoic acid] | ≥ 7.00 | ≥ 8.00 | ≥ 7.00 | ≥ 8.00 | – | – | – | – | – |
| Cc1csc2c(-c3ccc(F)cc3)c(/C=C/[C@@H](O)C[C@@H](O)CC(=O)O)c(C3CC3)nc12 [Example I-1, (3R,5S,E)-7-(5-cyclopropyl-7-(4-fluorophenyl)-3-methylthieno[3,2-b]pyridin-6-yl)-3,5-dihydroxyhept-6-enoic acid] | ≥ 7.00 | 7.30 to 8.00 | ≥ 7.00 | ≥ 8.00 | – | 1.5 to 1.75 | – | – | – |
| COCc1c(C2CC2)nc(C2CC2)c(/C=C/[C@@H](O)C[C@@H](O)CC(=O)O)c1-c1cc(F)ccc1C [II-24, (3R,5S,E)-7-(2,6-dicyclopropyl-4-(5-fluoro-2-methylphenyl)-5-(methoxymethyl)pyridin-3-yl)-3,5-dihydroxyhept-6-enoic acid] | – | 7.30 to 8.00 | – | 7.30 to 8.00 | ** (means≥1.25 and <1.5) | 1.25 to 1.5 | – | – | – |
| O=C(O)C[C@H](O)C[C@H](O)/C=C/c1c(-c2ccc(F)cc2Cl)cc(C2CCC2)nc1C1CC1 [II-7, (3R,5S,E)-7-(4-(2-chloro-4-fluorophenyl)-6-cyclobutyl-2-cyclopropylpyridin-3-yl)-3,5-dihydroxyhept-6-enoic acid] | – | 7.30 to 8.00 | – | 7.00 to 7.30 | – | – | – | – | – |
| Cc1cc2c(-c3ccc(F)cc3)c(/C=C/[C@@H](O)C[C@@H](O)CC(=O)O)c(C3CC3)nc2s1 [Example I-5b, (3R,5S,E)-7-(6-cyclopropyl-4-(4-fluorophenyl)-2-methylthieno[2,3-b]pyridin-5-yl)-3,5-dihydroxyhept-6-enoic acid] | – | – | – | – | ** (means≥1.25 and <1.5) | – | ** (means≥1.25 and <1.5) | 6.30 to 7.00 | 7.00 to 7.30 |
